The values below come from patent publication US20190350907A1, “METHODS AND PHARMACEUTICAL COMPOSITIONS FOR REDUCING CD95- MEDIATED CELL MOTILITY” (INSERM (INSTITUT NATIONAL DE LA SANTÉ ET DE LA RECHERCHE …, priority 2017, published 2019).

One assay concerns activated PBLs. The assay is described as follows: CD95-mediated cell migration / endothelial transmigration of activated PBLs (Boyden chamber). It is filed as cell-based, human. The following applies: result in words. On the procedure: FIG. 3. Drugs inhibit CD95-mediated Ca′ response and cell migration. A. Activated PBLs were loaded with FuraPE3-AM (1 μM) and pre-treated for 1 h with non-toxic concentrations of indicated compounds. T-cells were then stimulated with cl-CD95L (100 ng/mL; arrow). Ratio values (R) were normalized to pre-stimulated values (R0) to yield R/R0 values. Data represent means±the SD. B. Left panel: using Boyden chamber assay, cell migration of parental H9 cells and their counterpart lacking CD95 (CD95-KO) was assessed. Right panel: activated PBLs were pre-incubated in the presence or absence of the indicated drugs for 1 hour using non-toxic concentration and the CD95-mediated cell migration was assessed by Boyden chambers. C. Th17 cells were sorted from blood of healthy donors (peripheral blood mononuclear cell). FACS analyses showing the efficiency of Th17 (CCR6^+ CXCR3^−) cell sorting from healthy donors PBMCs. D. Th17 cells were pre-incubated in the presence or absence of the indicated drugs for 1 hour using non-toxic concentration and cell migration was assessed by Boyden chambers. After membrane hydration of Boyden chambers (Millipore, Molsheim, France) containing 8 μm pore membranes, 10^5 cells were added to the top chamber. The bottom chamber was filled with low serum (1%)-containing medium in the presence or absence of cl-CD95L (100 ng/ml). Cells were incubated for 24 h. To quantify invasion, cells were fixed with methanol and stained with Giemsa. Stained cells were then removed from the top-side of the membrane using a cotton-tipped swab and five representative pictures for each insert were taken of the invading cells from the reverse side. For each experiment, invading cells were lysed and absorbance at 560 nm was measured. Membranes (3 μm pore size) of a Boyden chamber were hydrated in sterile D-PBS (Millipore, Molsheim, France). Thereafter, activated T-lymphocytes (10^6) were added to the top chamber on a confluent monolayer of HUVEC in a low serum (1%)-containing medium. The bottom chamber was filled with low serum (1%)-containing medium in presence or absence of 100 ng/ml of cl-CD95L. In experiments using human sera, 500 μl of serum from either healthy donors or SLE patients was added to the lower chamber. Cells were cultured for 24 h at 37° C. in a 5% CO2, humidified incubator. Transmigrated cells were counted in the lower reservoir by flow cytometry using a standard of 2.5×10^4 fluorescent beads (Flow-count, Beckman Coulter).

The target in a further assay is T1, CD95/PLCγ1 interaction (Homo sapiens, UniProt P19174).
T1 construct: The PLCγ1-SH3 domain (aa 790-851) (C); expressed in transfected cells; host or cells: HEK293T
T1 sequence (P19174 790-851): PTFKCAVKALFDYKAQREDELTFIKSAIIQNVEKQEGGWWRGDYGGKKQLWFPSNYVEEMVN
The assay is described as follows: Renilla luciferase protein-fragment complementation assay (PCA), CD95-CID/PLCγ1-SH3. It is filed as cell-based. Conditions: result in words. The procedure:
FIG. 1. […] A. Schematic representation of the protein-fragment complementation assay used with CD95-CID or -DD fused to F2 and PLCγ1-SH3 or FADD-DD fused to F1 to identify inhibitors from the Prestwick library. The Renilla luciferase enzyme was divided into amino-terminal and carboxy-terminal fragments (yellow domains) and fused to the indicated domains. B. Compounds from the Prestwick library were tested against CD95/PLCγ1 or CD95/FADD PCA. […] Inhibition of CD95/FADD interaction is also assessed.
Light emission indicates refolding of the luciferase and reconstitution of enzyme activity through protein/protein interactions. […] Data represent means±SD of three independent experiments. […] Then, the indicated peptides fused with or without the cell-penetrating domain TAT were incubated at the indicated concentrations for 4 hrs and luminescence was assessed. Data represent means±SD of three independent experiments. […].
HEK293T cells were electroporated with 5 μg of DNA using BTM-830 electroporation generator (BTX Instrument Division, Harvard Apparatus) with 10 μg of DNA. Transfected cells were cultured for 24 hrs prior to protein complementation assay analyses as previously described (17). Briefly, transfected cells (10^6) were washed, resuspended in 100 μl PBS and deposited in OptiPlate-96 (PerkinElmer, Waltham, Mass., USA). Coelenterazine-h (5 μM, Sigma) was injected to each well and renilla luciferase activity was monitored for the first 10 seconds using Infinite200Pro (Tecan, Männedorf, Switzerland).
A peptide consisting of the cell-penetrating domain of TAT fused to CID (TAT-CID) binds the SH3 domain of PLCγ1 and thereby, prevents PLCγ1/CD95 interaction and the subsequent induction of the Ca^2+ response (16). […] Briefly, the Renilla luciferase enzyme was divided into two fragments (F1 and F2 fragments). […] Interaction of CD95 with PLCγ1 or FADD allows the reconstitution of RLuc and subsequent light emission (FIG. 1A). The chemical Prestwick library was screened against these PCAs (FIG. 1B). […] These molecules are designated CID inhibitors or CIDINH.

“Also recorded” adds a separate entry of the source.

In the case of `O=C(O)c1cc(-c2ccc(F)cc2F)ccc1O` [diflunisal, 5-(2,4-difluorophenyl)-2-hydroxybenzoic acid], the “effect on endothelial transmigration of PBLs” value in the assay on activated PBLs is “inhibited”. In addition, the “effect on interaction of CD95 with PLCγ1” value on CD95/PLCγ1 interaction is given as “efficiently prevented”.
For `CC(C)c1nc(CN(C)C(=O)N[C@H](C(=O)N[C@@H](Cc2ccccc2)C[C@H](O)[C@H](Cc2ccccc2)NC(=O)OCc2cncs2)C(C)C)cs1` [ritonavir, 1,3-thiazol-5-ylmethyl N-[(2S,3S,5S)-3-hydroxy-5-[[(2S)-3-methyl-2-[[methyl-[(2-propan-2-yl-1,3-thiazol-4-yl)methyl]carbamoyl]amino]butanoyl]amino]-1,6-diphenylhexan-2-yl]carbamate], in that order: “inhibited” and “efficiently prevented; also recorded: prevents the PLCγ1 recruitment”.
